Common to all, as to assay type: cell-based
The test system of one assay is TNF-α. As to the kind of experiment: Whole bovine blood assay, LPS-induced TNF-α. As to conditions: fresh whole bovine blood, LPS stimulant; top drug concentration 250 μM. The essentials:
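Fresh heparinized bovine whole blood was preincubated with compound 4 h at 37 °C, then stimulated with LPS (final 1 μg/mL) for 18 h at 37 °C. Plasma TNF-α was quantified by MSD U-Plex chemiluminescent immunoassay, normalized to total protein (BCA), and IC50 taken for LPS-induced TNF-α inhibition.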

A further assay deals with IL-1β. As to the kind of experiment: Whole bovine blood assay, LPS-induced IL-1β (inhibition / overstimulation). Particulars: drug concentration giving overstimulation (OS) of LPS-induced IL-1β, top concentration 250 μM. The essentials: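 IL-1β was quantified by MSD U-Plex chemiluminescence in plasma and normalized to BCA total protein. Bovine blood was pretreated 4 h at 37 °C with compound dilutions before 18 h LPS challenge (1 μg/mL final). Rising IL-1β at high concentrations was recorded as overstimulation.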

A further assay deals with IL-6. Description: Whole bovine blood assay, LPS-induced IL-6. Particulars: fresh whole bovine blood, LPS stimulant; top drug concentration 250 μM.

Experimental findings from US20250236616A1, “IMMUNOMODULATING AZALIDES” (Zoetis Services LLC, priority 2021, published 2025) are described below.

Regarding `CC[C@H]1OC(=O)[C@H](C)[C@@H](O)[C@H](C)[C@@H](O[C@@H]2O[C@H](C)C[C@H](N(C)S(=O)(=O)c3ccc(N4CCOCC4)nc3)[C@H]2Oc2ccc(F)cc2)[C@](C)(O)C[C@@H](C)CN[C@H](C)[C@@H](O)[C@]1(C)O` [Example A-21], the IC50 in the assay on TNF-α and with IL-6 was 16 µM each time. The minimal effective concentration (usually the lowest level tested that produced the effect sought) in the assay on IL-1β came to 16 µM.

Regarding `CC[C@H]1OC(=O)[C@H](C)[C@@H](O)[C@H](C)[C@@H](O[C@@H]2O[C@H](C)C[C@H](N(C)S(=O)(=O)c3cccs3)[C@H]2Oc2ccc(F)cc2)[C@](C)(O)C[C@@H](C)CN[C@H](C)[C@@H](O)[C@]1(C)O` [Example A-22], the concentration for half-maximal inhibition (IC50) (usually the concentration at which inhibition is half-maximal) in the assay on TNF-α amounted to 30 µM; in the assay with IL-6, 22 µM. This compound also displayed a minimal effective concentration with IL-1β of 16 µM.

With `CC[C@H]1OC(=O)[C@H](C)[C@@H](O)[C@H](C)[C@@H](O[C@@H]2O[C@H](C)C[C@H](N(C)S(=O)(=O)c3ccccc3)[C@H]2Oc2ccc(F)cc2)[C@](C)(O)C[C@@H](C)CN[C@H](C)[C@@H](O)[C@]1(C)O` [Example A-23], the results for the half-maximal inhibitory concentration (IC50) in the assay on TNF-α and with IL-6 were 36 µM and 22 µM, respectively. In addition, the minimal effective concentration in the assay with IL-1β worked out at 16 µM.

With `CC[C@H]1OC(=O)[C@H](C)[C@@H](O)[C@H](C)[C@@H](O[C@@H]2O[C@H](C)C[C@H](N(C)S(=O)(=O)c3cc4ccccc4o3)[C@H]2Oc2ccc(F)cc2)[C@](C)(O)C[C@@H](C)CN[C@H](C)[C@@H](O)[C@]1(C)O` [Example A-24], the figures for the IC50 in the assay with TNF-α and with IL-6 were 30 µM and 26 µM, respectively. This compound also came in with a minimal effective concentration in the assay on IL-1β of 19 µM.

Regarding `CC[C@H]1OC(=O)[C@H](C)[C@@H](O)[C@H](C)[C@@H](O[C@@H]2O[C@H](C)C[C@H](N(C)S(=O)(=O)c3ccc(F)cc3)[C@H]2Oc2ccc(F)cc2)[C@](C)(O)C[C@@H](C)CN[C@H](C)[C@@H](O)[C@]1(C)O` [Example A-25], the IC50 with TNF-α amounted to 75 µM; in the assay with IL-6 it was 28 µM. The compound also had a minimal effective concentration in the assay with IL-1β of 16 µM.

Take `CC[C@H]1OC(=O)[C@H](C)[C@@H](O)[C@H](C)[C@@H](O[C@@H]2O[C@H](C)C[C@H](N(C)S(=O)(=O)c3nccn3C)[C@H]2Oc2ccc(F)cc2)[C@](C)(O)C[C@@H](C)CN[C@H](C)[C@@H](O)[C@]1(C)O` [Example A-27]: the IC50 in the assay on TNF-α is 141 µM; in the assay on IL-6, 66 µM. The minimal effective concentration in the assay with IL-1β was found to be 100 µM.

`CC[C@H]1OC(=O)[C@H](C)[C@@H](O)[C@H](C)[C@@H](O[C@@H]2O[C@H](C)C[C@H](N(C)S(=O)(=O)c3cnc4n3CCC4)[C@H]2Oc2ccc(F)cc2)[C@](C)(O)C[C@@H](C)CN[C@H](C)[C@@H](O)[C@]1(C)O` [Example A-28]: the figures for the concentration for half-maximal inhibition (IC50) in the assay with TNF-α and with IL-6 were above 250 µM and 120 µM, respectively. Further, the minimal effective concentration in the assay on IL-1β was 81 µM.

On to `CC[C@H]1OC(=O)[C@H](C)[C@@H](O)[C@H](C)[C@@H](O[C@@H]2O[C@H](C)C[C@H](N(C)S(=O)(=O)c3nccn3C)[C@H]2Oc2ccc(F)c(C(F)(F)F)c2)[C@](C)(O)C[C@@H](C)CN[C@H](C)[C@@H](O)[C@]1(C)O` [Example A-34], for which the IC50 stood at 205 µM in the assay with TNF-α and 59 µM with IL-6. Also, the minimal effective concentration in the assay with IL-1β turned out to be 40 µM.

Consider `CC[C@H]1OC(=O)[C@H](C)[C@@H](O[C@H]2C[C@@](C)(OC)[C@](O)(CN3CCCCC3)[C@H](C)O2)[C@H](C)[C@@H](O[C@@H]2O[C@H](C)C[C@H](N(C)S(=O)(=O)Nc3ccccc3)[C@H]2O)[C@](C)(O)C[C@@H](C)CN(CC)[C@H](C)[C@@H](O)[C@]1(C)O` [Example C-20], for which the minimal effective concentration in the assay with IL-1β came out at 10 µM. Moreover, the IC50 in the assay with IL-6 stood at 24 µM.

Take `CCCN([C@H]1C[C@@H](C)O[C@@H](O[C@@H]2[C@@H](C)[C@H](O[C@H]3C[C@@](C)(OC)[C@](O)(CN4CCCCC4)[C@H](C)O3)[C@@H](C)C(=O)O[C@H](CC)[C@@](C)(O)[C@H](O)[C@@H](C)NC[C@H](C)C[C@@]2(C)O)[C@@H]1O)S(=O)(=O)c1ccc(OC)cc1` [Example C-41]: the minimal effective concentration in the assay on IL-1β is reported as above 250 µM. The compound further gave a half-inhibitory concentration (IC50) in the assay with IL-6 of 4 µM.
